US20260041744A1, “Methods for Treating Pompe Disease” (Amicus Therapeutics, Inc., priority 2022, published 2026)
Entries after “also recorded” stand apart in the source; their conditions may differ.

Columns and labels:
adult subjects with LOPD [1] = assay: Study ATB200-07 (OLE): GSGC; type: in vivo, human
Text: (§1) Analysis populations presented in this summary are 1) the OLE-ES Population (all subjects who satisfied the eligibility requirements (based on the inclusion and exclusion criteria) and entered Study ATB200-07 and 2) the OLE-FAS Population (all subjects who entered the OLE Study ATB200-07 who had both a valid ATB200-07 baseline and at least 1 post-baseline assessment for at least 1 of the 6 main efficacy endpoints [6MWD, sitting % predicted FVC, MMT-lower extremities, PROMIS-Physical Function, PROMIS-Fatigue, and GSGC]).

[2] = test system: LOPD population (PROPEL target population); assay: Multi-level network meta-regression (ML-NMR) indirect treatment comparison, 6MWD and FVC change from baseline at week 52; design: species or system human
Procedure: Using patient-level data from the PROPEL randomized clinical trial (RCT) plus aggregate published data from other RCTs, Phase I/II and open label extension trials, a multi-level network meta-regression was conducted, adjusting for various baseline covariates including previous ERT duration. The base case scenario had covariates resembling the PROPEL population (naïve and ERT-experienced) and analyzed 6MWD and FVC change from baseline at 52 weeks.
An ITC providing relative effect estimates in the target population of interest (ie an LOPD population including a mix of ERT-naïve and ERT-experienced subjects as in the pivotal Phase III trial comparing Cipa+mig with Alglu [PROPEL]) was performed.
A systematic literature review (SLR) was conducted to identify relevant published clinical studies of ERTs in LOPD. Outcomes assessed were change from baseline in 6-minute walking distance (6MWD) (m) and in forced vital capacity (FVC; % predicted) at week 52, acknowledged by clinicians, HTA agencies and payers as key LOPD trial endpoints. Aggregate results on 6MWD and FVC change from baseline over time and baseline characteristics (age, gender, ethnicity, previous ERT duration, baseline 6MWD and baseline FVC) were extracted from included studies.
A multi-level network meta regression (ML-NMR) was performed, which is an extension of standard network meta-analyses (NMAs) that take into account the effect of study-level covariates, and that can be applied to any connected network with any mixture of individual patient-level data (IPD) and aggregate data. ML-NMR is an accepted method by the National Institute for Health and Care Excellence (NICE) in support of cost effectiveness analysis. Single-arm study results were matched to appropriate comparator arms of the comparative studies to allow for inclusion into the network. Mean treatment differences with associated 95% credible intervals (CrIs) were calculated for 6MWD and FVC change from baseline at week 52.
A base-case scenario was evaluated in which all covariates were set to the target population of the PROPEL trial. To study the impact of previous ERT duration on relative effects, ERT duration value was varied, keeping remaining covariate values as in the base-case scenario. A sensitivity analysis was performed by excluding all matched single-arm evidence from the network to assess its impact on the results.
Both fixed effects (FE) and random effects (RE) ML-NMR models were applied and the deviance information criteria (DIC) was used to assess goodness-of-fit of the models and to identify the appropriate model (FE or RE model) for the data. Models were implemented in a Bayesian framework using Stan with help of the R package multinma.
In the base-case scenario, the covariates were set to the baseline characteristics of the target population (ie the PROPEL trial; see Table 20), and time was set to 52 weeks.

[3] = test system: adult subjects with late-onset Pompe disease (LOPD); assay: Study ATB200-03: summary across primary, secondary and biomarker endpoints (incl. SVC, FVC supine, MIP, MEP, SNIP, MMT upper/overall, QMT, TUG); details: ITT excluding outlier subject
Text: • overall physical wellbeing • effort of breathing • muscle strength • muscle function • ability to move around • activities of daily living • energy level • level of muscular pain • actual value of the subject's functional status (improving, stable, or declining) at Week 52, as measured by the Physician's Global Impression of Change • change from baseline to Week 52 in the following measures of pulmonary function, as follows: • sitting FVC (% predicted) • MIP (cmH2O) • MIP (% predicted) • MEP (cmH2O) • MEP (% predicted) • SNIP (cmH2O)

adult subjects with LOPD [4] = assay: Study ATB200-07 (OLE): PROMIS-Fatigue; type: in vivo, human
Text: as §1

[5] = test system: adult subjects with late-onset Pompe disease (LOPD); assay: Study ATB200-03 (PROPEL): serum creatine kinase (CK); type: in vivo, human; details: for CK reduction vs alglucosidase alfa: week 52
[6] = test system: adult subjects with late-onset Pompe disease (LOPD); assay: Study ATB200-03 (PROPEL): PROMIS-Physical Function; type: in vivo, human; details: for CHG to Week 52 in PROMIS-Physical Function total score, LS Mean: MMRM, actual time point of assessments
Procedure: The test for the primary endpoint was conducted first at the 1-sided 0.025 significance level, and if significant, the ordered key secondary endpoints were similarly tested at the same significance level. The statistical significance of the key secondary endpoints was interpreted following a hierarchical testing order, each at the 1-sided alpha level of 0.025. […] Primary analyses of efficacy were performed using the mixed-effect model for repeated measures (MMRM) for 6MWD in Intent-to-treat Observed Population (ITT) that includes all available, observed data without any missing data imputation (ITT-OBS) and analysis of covariance (ANCOVA) for all other endpoints in the Intent-to-Treat-Last Observation Carried Forward (ITT-LOCF) Population. A nonparametric randomization based ANCOVA was specified as the first sensitivity analysis for 6MWD and FVC. […] For the purposes of data presentation in this document, 2-sided p-values are reported hereafter, except as otherwise noted.

[7] = Study ATB200-03 baseline, OLE-ES Population excluding Subject 4005-2511
[8] = change from ATB200-03 baseline at Week 52, decrease indicates improvement, OLE-ES excluding Subject 4005-2511
[9] = change from ATB200-03 baseline at Week 104, alglucosidase alfa/placebo group switched to cipaglucosidase alfa/miglustat at Week 52, OLE-ES excluding Subject 4005-2511
[10] = Week 52-LOCF, ERT-experienced Population
[11] = Week 52-LOCF, ERT-naïve Subjects excluding Subject 4005-2511

ATB200/miglustat: two-component therapy: cipaglucosidase alfa (ATB200) administered in conjunction with miglustat (AT2221), a stabilizer of cipaglucosidase alfa
GSGC, mean BSL (adult subjects with LOPD [1]; [7]): 14.4
GSGC, mean 52-wk CFB (adult subjects with LOPD [1]; [8]): −0.6
GSGC, mean 104-wk CFB (adult subjects with LOPD [1]; [9]): −1.0
6MWD relative effect vs alglucosidase alfa ([2]; base case, 52 weeks): 16.3 meters
6MWD relative effect vs avalglucosidase alfa ([2]; base case, 52 weeks): 29.5 meters
FVC relative effect vs alglucosidase alfa ([2]; base case, 52 weeks): 3.1%
FVC relative effect vs avalglucosidase alfa ([2]; base case, 52 weeks): 2.8%
relative effect, sensitivity analysis (RCT data only), 6MWT and FVC ([2]; base-case scenario): statistically favourable versus Alglu; numerically unfavourable versus Aval; numerically favourable versus placebo (6MWT and FVC)
relative effect, main analysis, 6MWD and FVC ([2]; base-case scenario / by ERT duration, listed as Cipa+mig): statistically significant favourable effect versus Alglu and Aval; also recorded: numerically favourable effect versus placebo; also recorded: for FVC, Cipa+mig was only numerically favorable vs. Aval in the ERT-naïve setting
FVC relative effect vs Aval ([2]; naïve subjects): 0.4%
parameters with statistically significant decline from baseline at Week 52 [3]: SVC sitting
parameters with statistically significant improvement from baseline at Week 52 [3]: 6MWD, % predicted 6MWD, MMT lower extremities, MMT upper extremities, overall MMT, PROMIS-Physical Function, PROMIS-Fatigue, CK, and Hex4
PROMIS-Fatigue, mean BSL (adult subjects with LOPD [4]; [7]): 22.1
PROMIS-Fatigue, mean 52-wk CFB (adult subjects with LOPD [4]; [8]): −2.3
PROMIS-Fatigue, mean 104-wk CFB (adult subjects with LOPD [4]; [9]): −1.6
mean change in CK after 52 weeks ([5]; combined study population): −22.4%
CK reduction vs alglucosidase alfa [5]: reductions in CK and urinary Hex4 were significantly greater with ATB200/miglustat treatment at week 52
CK reduction vs alglucosidase alfa ([5]; listed as AT-GAA): significantly favored AT-GAA compared to alglucosidase alfa
CK reduction vs alglucosidase alfa ([5]; listed as cipaglucosidase alfa/miglustat): reductions in biomarkers of muscle damage (CK) and disease substrate (Hex4) also were significantly greater with cipaglucosidase alfa/miglustat compared with alglucosidase alfa
PROMIS-Physical Function Short Form 20a total score Absolute Value, Median ([6]; Baseline, ITT, ERT-naïve Subjects excluding Subject 4005-2511): 76.00
PROMIS-Physical Function Short Form 20a total score Absolute Value, Mean ([6]; Baseline, ITT, ERT-naïve Subjects excluding Subject 4005-2511, score 20 to 100, higher = less impact): 74.65
mean (SD) change in PROMIS-Physical Function total score from baseline to Week 52 ([6]; ERT-experienced Population): 1.8 (7.18)
mean (SD) change in PROMIS-Physical Function total score from baseline to Week 52 ([6]; ERT-naïve excluding Subject 4005-2511): 2.5 (8.62)
Change in PROMIS-Physical Function total score baseline to Week 52, LS means (SE) from ANCOVA ([6]; ITT-LOCF, ERT-naïve Subjects excluding Subject 4005-2511): 1.87 (1.917)
CHG to Week 52 in PROMIS-Physical Function total score, LS Mean ([6]; ITT-OBS excluding Subject 4005-2511 (overall)): 2.2
CHG to Week 52 in PROMIS-Physical Function total score, LS Mean ([6]; ITT-OBS excluding Subject 4005-2511, ERT-naïve Subjects): 2.6
CHG to Week 52 in PROMIS-Physical Function total score, LS Mean ([6]; ITT-OBS, ERT-experienced Subjects): 2.0
PROMIS-Physical Function Short Form 20a total score Absolute Value, Mean (SD) [6, 10]: 66.19 (12.325)
PROMIS-Physical Function Short Form 20a total score Absolute Value, Median [6, 10]: 66.00
PROMIS-Physical Function Short Form 20a total score CHG, Mean (SD) [6, 10]: 1.76 (7.179)
PROMIS-Physical Function Short Form 20a total score CHG, Median [6, 10]: 0.50
PROMIS-Physical Function Short Form 20a total score Absolute Value, Mean [6, 11]: 77.15
PROMIS-Physical Function Short Form 20a total score Absolute Value, Median [6, 11]: 77.50
PROMIS-Physical Function Short Form 20a total score CHG (change from baseline), Mean [6, 11]: 2.50
PROMIS-Physical Function Short Form 20a total score CHG (change from baseline), Median [6, 11]: 0.00
